From EP3991732A1, “USE OF CLOFAZIMINE IN HEPATOCELLULAR CARCINOMA” (UNIVERSITE DE GENEVE, priority 2020, dated 2022)
pIC50: −log10 of the molar value.

Tests used:
[1] = test system: Wnt signalling (SNU398); assay: TopFlash dual luciferase assay, SNU398; type: cell-based, human
Method: (§1) Briefly, 50 µl of indicated cell lines at 84'000/ml for Huh7, or 96'000/ml for SNU398, or 144'000/ml for HepG2, Hep3B were distributed in a white opaque 384-well plate. The cells were maintained in their respective culture mediums and incubated at 37°C, 5% CO2 overnight for attachment. Afterwards, the cells are double-transfected (1:1 mixture) with the Wnt-specific TopFlash reporter plasmid (Syngene) and a Wnt-independent CMV-Renilla plasmid monitoring the general level of cell transcription (Addgene, Cambridge, MA, USA). The relative nature of this representation (ratio of the TopFlash to the CMV-Renilla levels) permits to compare Wnt pathway levels across cell types, being independent from individual cell transfection efficiency.
(§2) Transfection was carried out as described in the manufacturer's protocol using 12 µg/ml of DNA and 40 µl/ml XtremeGENE 9 reagent (Roche). The next day, the medium of each well was replaced 30 µl fresh medium containing Wnt3a (500 ng/ml) (purified as described by (Koval and Katanaev, 2011, Biochemical Journal 433, 435) or GSK3β inhibitor (CHIR99021, Sigma-Aldrich) and clofazimine at 5, 10, and 15 µM concentrations (following 1h of preincubation with the compound). After overnight incubation, the supernatant in each well was removed and the luciferase activity was measured as described (Koval and Katanaev, 2011, supra). […]

[2] = test system: Wnt signalling (Hep3B); assay: TopFlash dual luciferase assay, Hep3B; type: cell-based, human
Method: as §1, §2

[3] = test system: Wnt signalling (Huh7); assay: TopFlash dual luciferase assay, Huh7; type: cell-based, human
Method: as §1, §2

[4] = test system: Wnt signalling (HepG2); assay: TopFlash dual luciferase assay, HepG2; type: cell-based, human
Method: as §1, §2

[5] = test system: SNU398; assay: MTT survival assay, SNU398; type: cell-based, human
Method: (§3) The four hepatocellular carcinoma (HCC) cell lines were tested in MTT survival assay with clofazimine as described below: 50 µl of the indicated cell lines re-suspended at 60'000 cells/ml for HepG2, Hep3B, at 35'000/ml for Huh7 and at 40'000/ml for SNU398 were added into each well of a transparent 384-well plate. The cells were maintained in DMEM containing 10% FBS for Hep3B; RPMI with 10% FBS for SNU398; DMEM without glucose containing 10% FBS and 1g/L glucose for Huh7 and MEM without glucose containing 10% FBS for HepG2 and incubated at 37°C, 5% CO2 overnight. The medium of each well was replaced by 100 µl fresh medium the next day containing the indicated concentrations of clofazimine. After incubation for 4-7 days (depending on the growth rate of line), the medium in each well was replaced by 50 µl of 0.5 mg/ml Thiazolyl blue (Carl Roth) solution in 1xPBS. The plates were incubated for 3h at 37°C. Then the solution was removed and 50 µl DMSO was added into each well. Absorbance at 570 nm was measured in a Tecan Infinite M200 PRO plate reader.

[6] = test system: Hep3B; assay: MTT survival assay, Hep3B; type: cell-based, human
Method: as §3

[7] = test system: Huh7; assay: MTT survival assay, Huh7; type: cell-based; conditions: Homo sapiens, Huh-7, Huh7 cells, incubation 4-7 days
Method: as §3

[8] = test system: HepG2; assay: MTT survival assay, HepG2; type: cell-based; conditions: Homo sapiens, HepG2 cells, incubation 4-7 days
Method: as §3

[9] = versus relatively low basal level
[10] = clofazimine 5, 10, 15 µM, Wnt3a 500 ng/ml

stimulation of Wnt signalling levels by activator (TopFlash) [2, 9]	stimulation of Wnt signalling levels by activator (TopFlash) [3, 9]	inhibiting effect on Wnt signaling (Wnt3a-induced response in the TopFlash assay) [1, 10]	inhibiting effect on Wnt signaling (Wnt3a-induced response in the TopFlash assay) [2, 10]	inhibiting effect on Wnt signaling (Wnt3a-induced response in the TopFlash assay) [3, 10]	inhibiting effect on Wnt signaling (Wnt3a-induced response in the TopFlash assay) [4, 10]	Structure (SMILES)	stimulation of Wnt signalling levels by activator (TopFlash) ([1]; versus very high basal level)	stimulation of Wnt signalling levels by activator (TopFlash) ([4]; versus very high basal level)	pIC50 ([5]; Homo sapiens, SNU-398, SNU398 cells, MTT, incubation 4-7 days)	stronger sensitivity to growth inhibition than HepG2 and Huh7 ([5]; SNU398 versus HepG2 and Huh7, MTT assay) [fold]	stronger sensitivity to growth inhibition than HepG2 and Huh7 ([6]; Hep3B versus HepG2 and Huh7, MTT assay) [fold]	pIC50 ([6]; Homo sapiens, Hep3B cells, MTT, incubation 4-7 days)	pIC50 [7]	pIC50 [8]
strongly stimulated	strongly stimulated	–	–	–	–	Cc1c[nH]c(-c2cnc(NCCNc3ccc(C#N)cn3)nc2-c2ccc(Cl)cc2Cl)n1 [CHIR99021]	not at all or to at best limited extent further increased	not at all or to at best limited extent further increased	–	–	–	–	–	–
–	–	inhibited	inhibited	non-responsive	non-responsive	CC(C)N=c1cc2n(-c3ccc(Cl)cc3)c3ccccc3nc-2cc1Nc1ccc(Cl)cc1 [clofazimine, N,5-bis(4-chlorophenyl)-3-(propan-2-ylimino)-3,5-dihydrophenazin-2-amine]	–	–	5.70 to 6.00	> 10	> 10	5.70 to 6.00	4.89	4.77
